Key:
EGFR = EGFR phosphorylation in serum-starved CGNs (immunoblot of neuronal lysates); format: cell-based; settings: for effect on EGFR phosphorylation subsequent to Nogo-66 treatment: CGNs, Nogo-66-elicited trans-activation; for effect on direct EGFR activation by EGF: EGF stimulation; for induction of EGFR phosphorylation: serum-starved CGNs, Nogo-66 and OMgp at 5 nM
Text: To examine whether myelin inhibitors directly influence the activity of EGFR in myelin-responsive neurons, we treated serum-starved CGNs with recombinant soluble myelin inhibitors and assessed the EGFR receptor activity.
Previously, we developed a truncated form of NgR that has the ability to bind to ligands but not its signaling co-receptors (8-10, 12). When over-expressed, the truncated receptor can compete with endogenous NgR for coreceptor binding and thus block inhibitor-induced signaling pathways (8-10, 12). […] It is known that in addition to activation by its cognate ligands, EGFR phosphorylation can also result from “trans-activation” by other signaling pathways (22, 23). For example, angiotensin II acts through the angiotensin AT1 receptor, to promote growth of cardiomyocytes via trans-activation of the EGFR and activation of MAP kinase (23). […] We examined whether any of these mechanism(s) are involved in the NgR-dependent EGFR trans-activation by inhibiting specific signaling pathways pharmacologically. […]

[1] = test system: cerebellar granule cells (CGNs) on immobilized myelin substrate; assay: Screen of about 400 small molecules in a neurite outgrowth assay of CGNs on immobilized myelin; format: cell-based; settings: 5×10^4 CGNs per well on immobilized myelin, grown overnight; 10-fold dilutions centered on IC50; scored by two blind observers
Protocol: We screened approximately 400 well-characterized small molecules in a neurite outgrowth assay of cerebellar granule cells (CGNs) on immobilized myelin substrate. Myelin was immobilized on 96-well plates using published methods (8). Individual compounds from a signaling molecule targeted drug library (TOCRIS) were diluted by 10-fold dilutions centered on their IC50 values, in concentrations typically varying from low nanomolar to micromolar, and transferred to culture wells with 5×10^4 CGNs per well. Cells were grown overnight, fixed in paraformaldehyde, and stained with tubulin antibodies. Outgrowth was independently scored by two blind observers. Positively scored compounds were picked for further verifications. Each compound was evaluated at a 10^4 dilution range centered on its IC50 value to ensure effective concentrations for each drug tested. Several internal controls, including cAMP analogues, phosphodiesterase inhibitors, and a Rho-associated protein kinase inhibitor were identified in the screen, confirming previous findings and validating our approach.

CGNs = assay: Neurite outgrowth assay of P7-9 CGNs on control and myelin inhibitor substrates; format: cell-based; settings: AG1288 1 μM, AG1478 10 nM, PD168393 10 nM; 20 hr; about 500 neurons per condition
Protocol: (§1) To confirm the involvement of EGFR kinase in myelin inhibition, we tested two well-characterized EGFR inhibitors with distinctive mechanisms of action, AG1478 and PD168393, and a non-receptor tyrosine kinase inhibitor, AG1288, in the outgrowth assay. P7-9 CGNs were plated on control and immobilized myclin substrate and grown in the presence of AG1288 (1 μM), AG1478 (10 nM) and PD168393 (10 nM) for 20 hr (8, 10). Cells were fixed in paraformaldehyde and stained with anti-tubulin antibody (Tuj1, Covance) to visualize and quantitate neurite length. […] Approximately 500 neurons were counted for each condition from at least 3 independent experiments. All AG1478 and PD168393 treatments on inhibitors were significant. In contrast, none of the treatments affected either the neurite outgrowth on a control poly-D-lysine (PDL) substrate or neuronal survival. Similarly, EGFR kinase inhibitors were able to block myelin neurite outgrowth inhibition in retinal explant cultures grown within a collagen matrix laden with myelin. P5-6 mouse retinas were dissected and cut into small explants on a tissue chopper. The resultant explants were cultured within a collagen matrix with and without myelin (10 μg/ml) in the presence or absence of PD168393 (10 nM) for 72 hrs. Explants were fixed and stained with anti-tubulin antibodies.

[2] = test system: dorsal root ganglion (DRG) neurons; assay: Neurite outgrowth assay of DRG neurons on myelin inhibitor substrates; format: cell-based
PC12 cells = settings: cultured PC12 cells; cited from earlier work
[3] = test system: PC12 cell lines with reduced EGFR signaling; settings: cited from earlier work
[4] = test system: neurons of the crushed right internal parietal (RIP) nerve; settings: pond snail Lymnaea stagnalis; cited from earlier work
CNS neurons = CNS neurons overexpressing SOCS2; cited from earlier work
[5] = test system: P5-6 mouse retinal explants; assay: Retinal explant outgrowth in collagen matrix laden with myelin; format: cell-based; settings: myelin 10 μg/ml in collagen matrix; PD168393 10 nM; 72 hrs; Student's t test P<0.0001
Protocol: as §1

Retinal explants = assay: Retinal explant neurite outgrowth in collagen gels with CSPGs; format: cell-based; settings: CSPGs 200 ng/ml in collagen gels; PD168393 100 nM; three days
Protocol: In addition to myelin inhibitors, chondroitin sulfate proteoglycans (CSPGs) in the glial scar represent a major hurdle for regenerating axons. […] Retinal explants were grown in collagen gels with and without CPSGs (200 ng/ml, Chemicon) and PD168393 (100 nM) for three days, fixed and stained with anti-tubulin antibodies. […] In contrast, neither growth cone collapse nor repulsive responses induced by Sema3A were affected by EGFR inhibitors.

[6] = test system: lesioned optic nerve fibers; format: in vivo
Text: The finding that inhibiting neuronal EGFR activity could efficiently block the inhibitory activity of both myelin inhibitors and CSPGs prompted us to examine whether EGFR inhibitors introduced at a CNS lesion site could promote axon regeneration in a model of optic nerve crushing (28). All animal experiments were done in accordance with protocols approved by the institutional animal care and use committee at Schepens Eye Research Institute. Adult mouse optic nerves were exposed behind the eyeball and crushed. Immediately after injury in adult mice, Gelfoam soaked in a solution containing the EGFR inhibitor PD168393 or 0.1% DMSO (control) was placed against the crush site of the nerve and replaced every three days for the first six days of the study. Animals were sacrificed two weeks post injury followed by transcardial perfusion with 4% paraformaldehyde. Optic nerves were cryosectioned at 10 μm and stained with an anti-GAP43 antibody (Chemicon) to detect regenerating axons (28). Little regeneration was detected in DMSO-treated control mice. […] To test the possibility that the observed axon regrowth of retinal ganglion neurons (RGCs) after PD168393 treatment was a consequence of improved cell survival, we stained retinal sections with the anti-tubulin Tuj1 antibody, which stains RGCs in the retina, and counted surviving RGCs. […]

## Cn1c2ccccc2c2c3c(c4c5ccccc5n(CCC#N)c4c21)CNC3=O [Go6976]
EGFR
  effect on EGFR phosphorylation subsequent to Nogo-66 treatment: had no effect

## N#C/C(=C\c1ccc(O)c(O)c1)C(N)=S [Tyrphostin A47]
[1]
  ability to counter the effects of myelin inhibition on neurite outgrowth: showed the greatest ability to counter the effects of myelin inhibition

## C[C@@H](NC(=O)/C(C#N)=C/c1ccc(O)c(O)c1)c1ccccc1 [Tyrphostin B44(−)]
[1]
  ability to counter the effects of myelin inhibition on neurite outgrowth: showed the greatest ability to counter the effects of myelin inhibition

## COc1cc2ncnc(Nc3cccc(Cl)c3)c2cc1OC [AG1478]
CGNs
  promotion of neurite outgrowth from CGNs on whole myelin and individual myelin inhibitors (Nogo-66, MAG): effectively promoted neurite outgrowth
[2]
  promotion of neurite outgrowth from DRG neurons on whole myelin and individual myelin inhibitors (Nogo-66, MAG): effectively promoted neurite outgrowth
PC12 cells
  effect on versican V1-induced neuronal differentiation: significantly blocks differentiation
[3]
  cytotoxicity: cytotoxic

## O=C(O)CN(CCOCCOCCN(CC(=O)O)CC(=O)O)CC(=O)O [EGTA]
EGFR
  effect on EGFR phosphorylation subsequent to Nogo-66 treatment: significantly decreased EGFR phosphorylation
  effect on direct EGFR activation by EGF: neither EGTA nor BAPTA-AM had any effect

## COc1cc2ncnc(Nc3cccc(Br)c3)c2cc1OC [PD153035]
[4]
  effect on EGF-promoted axonal regeneration: counteracts the effect of EGF on axonal regeneration

## TAPI
EGFR
  effect on EGFR phosphorylation subsequent to Nogo-66 treatment: had no effect

## pertussis toxin
EGFR
  effect on EGFR phosphorylation subsequent to Nogo-66 treatment: had no effect

## N#C/C(=C\c1ccc(O)c(O)c1)C(N)=O [Tyrphostin A46]
[1]
  ability to counter the effects of myelin inhibition on neurite outgrowth: showed the greatest ability to counter the effects of myelin inhibition

## CNC(=O)[C@H](Cc1c[nH]c2ccccc12)NC(=O)[C@@H](CC(=O)NO)CC(C)C [GM6001]
EGFR
  effect on EGFR phosphorylation subsequent to Nogo-66 treatment: had no effect

## CC(=O)OCOC(=O)CN(CC(=O)OCOC(C)=O)c1ccccc1OCCOc1ccccc1N(CC(=O)OCOC(C)=O)CC(=O)OCOC(C)=O [BAPTA-AM]
EGFR
  effect on EGFR phosphorylation subsequent to Nogo-66 treatment: significantly decreased EGFR phosphorylation
  effect on direct EGFR activation by EGF: neither EGTA nor BAPTA-AM had any effect

## N#C/C(=C\c1ccc(O)c(O)c1)C(=O)NCc1ccccc1 [AG490]
CNS neurons
  effect on neurite outgrowth promoted by SOCS2 overexpression: outgrowth is blocked

## Nc1ncnc2c1cnn2-c1ccccc1 [PP3]
CNS neurons
  effect on neurite outgrowth promoted by SOCS2 overexpression: outgrowth is blocked

## CC(C)(C)n1nc(-c2ccc(Cl)cc2)c2c(N)ncnc21 [PP2]
EGFR
  effect on EGFR phosphorylation subsequent to Nogo-66 treatment: had no effect

## C=CC(=O)Nc1ccc2ncnc(Nc3cccc(Br)c3)c2c1 [PD168393]
CGNs
  promotion of neurite outgrowth from CGNs on whole myelin and individual myelin inhibitors (Nogo-66, MAG): effectively promoted neurite outgrowth
[2]
  promotion of neurite outgrowth from DRG neurons on whole myelin and individual myelin inhibitors (Nogo-66, MAG): effectively promoted neurite outgrowth
[5]
  outgrowth of retinal explants in myelin cultures compared to myelin alone: significantly promoted outgrowth of explants
Retinal explants
  neurite length of retinal explants compared to CSPGs alone: significantly increased neurite length
[6]; adult mice, measured 0.25 mm beyond the injury site, two weeks post injury, GAP43 staining, DMSO control
  increase in the number of regenerating axons compared to control mice: 9 fold
[6]; mouse, in vivo
  effect on RGC survival: No detectable effect

B1: Semaphorin3A: chemorepellant (protein, UniProt Q14563 21-771, looked up)
Semaphorin-3A: NYQNGKNNVPRLKLSYKEMLESNNVITFNGLANSSSYHTFLLDEERSRLYVGAKDHIFSFDLVNIKDFQKIVWPVSYTRRDECKWAGKDILKECANFIKVLKAYNQTHLYACGTGAFHPICTYIEIGHHPEDNIFKLENSHFENGRGKSPYDPKLLTASLLIDGELYSGTAADFMGRDFAIFRTLGHHHPIRTEQHDSRWLNDPKFISAHLISESDNPEDDKVYFFFRENAIDGEHSGKATHARIGQICKNDFGGHRSLVNKWTTFLKARLICSVPGPNGIDTHFDELQDVFLMNFKDPKNPVVYGVFTTSSNIFKGSAVCMYSMSDVRRVFLGPYAHRDGPNYQWVPYQGRVPYPRPGTCPSKTFGGFDSTKDLPDDVITFARSHPAMYNPVFPMNNRPIVIKTDVNYQFTQIVVDRVDAEDGQYDVMFIGTDVGTVLKVVSIPKETWYDLEEVLLEEMTVFREPTAISAMELSTKQQQLYIGSTAGVAQLPLHRCDIYGKACAECCLARDPYCAWDGSACSRYFPTAKRRTRRQDIRNGDPLTHCSDLHHDNHHGHSPEERIIYGVENSSTFLECSPKSQRALVYWQFQRRNEERKEEIRVDDHIIRTDQGLLLRSLQQKDSGNYLCHAVEHGFIQTLLKVTLEVIDTEHLEELLHKDDDGDGSKTKEMSNSMTPSQKVWYRDFMQLINHPNLNTMDEFCEQVWKRDRKQRRQRPGHTPGNSNKWKHLQENKKGRNRRTHEFERAPRSV
EGFR
  induction of EGFR phosphorylation: neither a control alkaline phosphatase (AP) protein nor the chemorepellant Semaphorin3A (Sema3A) induced detectable levels

B2: OMgp: recombinant soluble myelin inhibitor, oligodendrocyte myelin glycoprotein (protein, UniProt P23515 25-417, looked up)
Oligodendrocyte-myelin …: ICPLQCICTERHRHVDCSGRNLSTLPSGLQENIIHLNLSYNHFTDLHNQLTQYTNLRTLDISNNRLESLPAHLPRSLWNMSAANNNIKLLDKSDTAYQWNLKYLDVSKNMLEKVVLIKNTLRSLEVLNLSSNKLWTVPTNMPSKLHIVDLSNNSLTQILPGTLINLTNLTHLYLHNNKFTFIPDQSFDQLFQLQEITLYNNRWSCDHKQNITYLLKWMMETKAHVIGTPCSTQISSLKEHNMYPTPSGFTSSLFTVSGMQTVDTINSLSVVTQPKVTKIPKQYRTKETTFGATLSKDTTFTSTDKAFVPYPEDTSTETINSHEAAAATLTIHLQDGMVTNTSLTSSTKSSPTPMTLSITSGMPNNFSEMPQQSTTLNLWREETTTNVKTPLPS
EGFR
  induction of EGFR phosphorylation: triggered EGFR phosphorylation as early as 1 min post-stimulation
